From US8993717B2, “Gadd45beta targeting agents” (Imperial Innovations Limited, priority 2009, dated 2015)
Values joined by “and” are separate entries in the source; they are usually repeats but may differ in a detail not shown here. Equal values may be shown once. Read-outs that look alike come from different tables or passages of the source. Square brackets hold non-standard residues; d marks the D form. Peptide text beside a SMILES is read from it. * marks the point of attachment. Cbz = O=C(OCc1ccccc1)*

Legend:
[1] = tested on: 22 resistant tumour cell lines; test: [3H]thymidine incorporation assay in a panel of 22 resistant tumour cell lines; conditions: 100 μM, 144 hours
Experimental: In these latter assays, the effects of Z-DTPs, Ac-DTPs and Z-LTPs on the survival/proliferation of tumour cell lines was investigated by measuring DNA synthesis using standard tritiated thymidine ([^3H]thymidine; [^3H]-TdR) uptake assays. In the analyses shown, cells were incubated for 24, 72, 120 or 144 hrs at 37° C. in the presence or absence of control or bioactive tetrapeptides, as indicated, then subjected to an additional incubation for 18 hrs with [^3H]-TdR (0.037 MBq/well, equivalent to […]). Cells were subsequently harvested onto glass fibre filter mats using a 96-well plate automated cell harvester, after which scintillation fluid was added, and [^3H]thymidine incorporation measured by liquid scintillation spectroscopy on a beta counter. The results are expressed as the percentages of the counts per minute (c.p.m.) (directly correlating with the extent of cell proliferation) measured with tetrapeptide-treated cultures relative to the c.p.m. measured with the corresponding cultures incubated with medium alone (untreated cells). All experiments were performed in triplicate.

[2] = Mouse pharmacokinetics study, single i.v. injection; format: in vivo, male CD1 mice; conditions: for Last Time point: in h (unit assumed); for kel: 0.693/t1/2, table note; for half-life / clearance / Vd: male, CD1, mouse; for C0 / MRT inf / AUC: mouse; for AUC: read-out: AUC to Last; for acute toxicity in mice: single i.v. dose 10 mg/kg
Experimental: Z-DTP2 and Z-mDTP3 were administered intravenously to mice. Blood samples were collected at up to 7 time points after intravenous (i.v.) injection of the compounds over 8 hrs, and plasma was analysed by LC-MS/MS to determine the concentration of the compounds at each time point.
Three male CD1 mice, 25-30 grams each, were dosed per administration route per time-point, per compound. The test compound was administered intravenously (at a typical dose level of 10 mg of compound per kg of body weight). Animals were given free access to food throughout the study.
Blood samples were centrifuged to obtain the plasma, which was then transferred to a separate labelled container. Aliquots from the individual time points for the three animals were analysed singly. Proteins were precipitated by adding three volumes of methanol and centrifuging for 30 min at 4° C. Aliquots of 100 μl of the resulting supernatants were diluted with 200 μl of HPLC grade water in wells of a 96-well plate.
Standard curves were prepared in blank plasma matrices and treated in an identical manner to the samples. The plasma samples were quantified by LC-MS/MS, and the concentration of each compound in the plasma were reported in μg/mL.
Pharmacokinetic parameters were calculated employing non-compartmental model analysis, as described in the web site http://www.pharsight.com/main.php
The test compound concentration in plasma samples was measured by LC-MS/MS. The data were quantified using a five-point standard curve over a range of 3-3000 ng/mL.
Proteins were precipitated from 50 μL aliquots of the individual plasma samples by adding 150 μL methanol. Following protein precipitation, plasma samples were centrifuged for 30 min at 4° C. Aliquots of 100 μL of the resulting supernatant were diluted with 200 μL of HPLC grade water in a 96 well plate. The test compound was then quantified by LC-MS/MS from a five-point standard curve prepared by spiking plasma with varying concentrations of test compound dissolved in DMSO over a final concentration range of 3-3000 ng/mL (final DMSO concentration 1%) and treated in an identical manner to the test samples as described above.

[3] = target: T1, kinase domain of MKK7 (MKK7KD) (Homo sapiens, UniProt O14733, S271D/T275D); test: Surface Plasmon Resonance, immobilized MKK7KD; format: binding; conditions: 1 nM to 10 μM
T1 construct: His6; made in house; host or cells: E. coli
T1 sequence (O14733 101-405 isoform O14733-3 S287D/T291D): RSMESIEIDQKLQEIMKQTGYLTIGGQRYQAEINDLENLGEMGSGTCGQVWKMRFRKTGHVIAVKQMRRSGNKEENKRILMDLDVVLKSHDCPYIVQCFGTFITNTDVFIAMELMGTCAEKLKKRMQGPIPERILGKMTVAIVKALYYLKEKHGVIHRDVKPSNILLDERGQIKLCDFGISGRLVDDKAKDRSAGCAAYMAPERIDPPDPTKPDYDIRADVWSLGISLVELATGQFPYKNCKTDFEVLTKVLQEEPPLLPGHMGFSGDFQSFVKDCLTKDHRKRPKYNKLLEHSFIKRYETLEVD
Experimental: (§1) To determine how DTPs bind to the Gadd45 β/MKK7 complex, experiments were performed with a Biacore3000 SPR instrument (GE Healthcare, Milan, Italy), using 4-channels CM5 sensorchips (GE Healthcare, Milan, Italy). Full length human Gadd45β was prepared and purified as described in the reference by Tornatore L., et al. (2008). J Mol Biol; 378:97-111. […] The protein was purified to homogeneity by two subsequent steps of affinity chromatography (Ni-NTA support) and gel filtration (Superdex G75), and then characterized by SDS-PAGE, LC-MS to verify identity and purity, and by Circular Dichroism to assess folding.
(§2) MKK7KD was immobilized on the Biacore sensorchip via classical EDC/NHS coupling chemistry at pH 5 (protein pI, ˜9) at a flow rate of 5 uL/min An immobilization level of about 8000 Response Units was achieved. Gadd45β, which is an intrinsically acidic protein with a pI of about 4.5, was immobilized at pH 3.5 (6000 RU immobilization levels) on a separate channel. The residual reactive groups on both the Gadd45β and MKK7KD channels were finally inactivated by treatment with ethanolamine. On another channel the same procedure of activation with EDC/NHS and inactivation with ethanolamine was performed. […]

Gadd45β = target: T2, Gadd45β (Homo sapiens, UniProt O75293); test: Surface Plasmon Resonance, immobilized Gadd45β; format: binding; conditions: 1 nM to 10 μM
T2 construct: made in house
T2 sequence (O75293 1-160): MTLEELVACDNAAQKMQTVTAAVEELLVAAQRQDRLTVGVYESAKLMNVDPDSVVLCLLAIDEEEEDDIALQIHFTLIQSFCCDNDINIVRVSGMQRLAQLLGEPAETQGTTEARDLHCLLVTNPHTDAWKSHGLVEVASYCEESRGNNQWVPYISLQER
Experimental: as §1, §2

[4] = plasma, iv, 10 mg/kg, 10 mg/kg i.v., male CD1 mice, read-out: Total CL (converted)
[5] = plasma, iv, 10 mg/kg, 10 mg/kg i.v., male CD1 mice, read-out: Vss
[6] = plasma, iv, 10 mg/kg, 10 mg/kg i.v., male CD1 mice, read-out: Vβ
[7] = plasma, iv, 10 mg/kg i.v., male CD1 mice

Question: Which “cytotoxicity in resistant tumour cell lines” value [1] does the source give for `N=C(N)NCCC[C@@H](NC(=O)[C@@H](CCC(=O)O)NC(=O)[C@@H](Cc1ccc(O)cc1)NC(=O)OCc1ccccc1)C(=O)N[C@H](Cc1ccccc1)C(N)=O` [Compound 9, Z-D-Tyr-D-Glu-D-Arg-D-Phe-NH2] (Cbz-[dY][dE][dR][dF]-NH2) here?
Answer: no cytotoxicity

Question: And the “Last Time point” value ([2]; 10 mg/kg i.v., male CD1 mice)?
Answer: 8.0

Question: What about the kel [2] of the same molecule?
Answer: kel/t1/2 = 0.693/2.08 = 0.3323 hr^−1

Question: And the half-life ([2]; in vivo, iv, 10 mg/kg, T1/2)?
Answer: 2.08 h

Question: And the half-life ([2]; plasma, intravenous, text b344, read-out: half-lives in vivo (converted))?
Answer: ~2 h

Question: And the clearance [2, 4]?
Answer: 2.18 mL/min and 78.1 mL/min/kg

Question: What about the Vd [2, 5] of the same molecule?
Answer: 0.126 L

Question: And the Vd [2, 6]?
Answer: 0.394 L

Question: What about the half-life ([2]; plasma, iv, mice, read-out: initial distributive half-life) of the same molecule?
Answer: ~0.0833 h

Question: What about the half-life ([2]; plasma, iv, mice, read-out: terminal half-life (converted)) of the same molecule?
Answer: ~8 h

Question: What about the clearance ([2]; plasma, iv, mice, read-out: values of total clearance in the range) of the same molecule?
Answer: 66 to 90 mL/min/kg

Question: And the C0 [2, 7]?
Answer: 8740 ng/mL

Question: And the MRT inf [2, 7]?
Answer: 0.973 h

Question: And the AUC [2, 7]?
Answer: 2080 ng·h/mL

Question: What about the “acute toxicity in mice” value [2] of the same molecule?
Answer: absence of acute toxicity

Question: Which “binding to MKK7KD in isolation” value [3] does the source give for `CC(=O)N[C@H](Cc1ccc(O)cc1)C(=O)N[C@H](CCCNC(=N)N)C(=O)N[C@H](Cc1ccccc1)C(N)=O` [Compound 17, Ac-D-Tyr-D-Arg-D-Phe-NH2] (Ac-[dY]-[dR]-[dF]-NH2) here?
Answer: does not bind

Question: And the “Last Time point” value ([2]; 10 mg/kg i.v., male CD1 mice)?
Answer: 6.667

Question: What about the kel [2] of the same molecule?
Answer: kel/t1/2 = 0.693/2.08 = 0.3323 hr^−1

Question: And the “total clearance, times lower than that of Z-DTP2” value ([2]; i.v., mice)?
Answer: 3 times

Question: And the half-life ([2]; in vivo, iv, 10 mg/kg, T1/2)?
Answer: 1.26 h

Question: What about the clearance [2, 4] of the same molecule?
Answer: 0.736 mL/min and 27.1 mL/min/kg

Question: And the Vd [2, 5]?
Answer: 0.0126 L

Question: What about the Vd [2, 6] of the same molecule?
Answer: 0.0756 L

Question: And the half-life ([2]; plasma, iv, 10 mg/kg, i.v., mice, read-out: initial distributive half-life)?
Answer: ~0.0833 h

Question: And the half-life ([2]; plasma, iv, 10 mg/kg, i.v., mice, read-out: terminal half-life (converted))?
Answer: ~8 h

Question: What about the clearance ([2]; plasma, iv, 10 mg/kg, i.v., mice, read-out: values of total clearance in the range) of the same molecule?
Answer: 22 to 27 mL/min/kg

Question: What about the C0 [2, 7] of the same molecule?
Answer: 29100 ng/mL

Question: And the MRT inf [2, 7]?
Answer: 0.281 h

Question: What about the AUC [2, 7] of the same molecule?
Answer: 6430 ng·h/mL

Question: And the “acute toxicity in mice” value [2]?
Answer: absence of acute toxicity

Question: What about the “binding to Gadd45β in isolation” value (Gadd45β) of the same molecule?
Answer: does not bind
